For orientation: IC50 means the midpoint of a concentration-inhibition curve.

The text below walks through data of patent EP4692061A1, “LOW-MOLECULAR-WEIGHT COMPOUND HAVING CEREBLON-BINDING ACTIVITY, AND USE THEREOF” (Aevis Bio, Inc., priority 2023, dated 2024).

In one series the test system is MDA-MB-231. Put plainly: Tumor cell viability, CCK-8 assay, MDA-MB-231. The conditions noted are these: MDA-MB-231 (human breast cancer); compound treatment 1uM; 2 days. Format: cell-based. The method, then:
(§1) To examine whether the compounds having CRBN-binding activity according to the present invention exert tumor cell apoptosis effects, the assay was conducted using various human cancer cell lines, including human multiple myeloma cell lines (MM.1S and MM.1R-LR), a human breast cancer cell line (MDA-MB-231), a human lung cancer cell line (A549), a human rhabdomyosarcoma cell line (RD), and a human lymphoma cell line (Jeko-1).
(§2) The MM.1S, MM.1R-LR, MDA-MB-231, A549, RD, and Jeko-1 cell lines were obtained from the American Type Culture Collection (ATCC, Manassas, VA, USA) and cultured in RPMI 1640 medium (Corning, MD, USA) or DMEM (Corning, MD, USA) supplemented with 10% fetal bovine serum (FBS) (Corning, MD, USA), 100 U/mL penicillin (Corning, MD, USA), and 100 µg/mL streptomycin (Corning, MD, USA) at 37°C in a 5% CO2 incubator for 24 hours. The cells were seeded at a density of 1 × 10^4 cells/well in 96-well plates and incubated for 24 hours. After incubation, the test compounds dissolved in dimethyl sulfoxide (DMSO, CAS No.: 67-68-5) were serially diluted to a final concentration of 10 µM and applied to the cells. Following an additional incubation for 2 to 5 days, the analysis was performed using a CCK-8 assay kit (Dojindo, Japan) according to the manufacturer's instructions.
For orientation: Tetrazolium dyes change colour on reduction, which living cells bring about.

In a further series the target is cereblon (CRBN) (Homo sapiens, UniProt Q96SW2). Description: In vitro CRBN binding assay (AlphaScreen, competitive inhibition of the PROTAC assay). The conditions noted are these: Table 1; AlphaScreen, PROTAC Optimization Kit for BET Bromodomain-Cereblon Binding; read-out: Alpha IC50. On the technique in general: Bead proximity is the source of the signal in Alpha formats.

The subject of a further series is RD. Put plainly: Tumor cell viability, CCK-8 assay, RD. The format is cell-based. The conditions noted are these: RD (human rhabdomyosarcoma); compound treatment 1uM; 3 days. The method, then:
as §1, §2

The test system of a further series is A549. Put plainly: Tumor cell viability, CCK-8 assay, A549. The settings on record: A549 (human lung cancer); compound treatment 1uM; 2 days. Format: cell-based. As for the experimental part: as §1, §2
For another series, the system named is Jeko-1. Description: Tumor cell viability, CCK-8 assay, Jeko-1. Format: cell-based. The conditions noted are these: Jeko-1 (human lymphoma); compound treatment 1uM; 3 days. The method, then:
as §1, §2

For the next series, the system named is MM.1R-LR. Put plainly: Tumor cell viability, CCK-8 assay, MM.1R-LR. Format: cell-based. The settings on record: MM.1R-LR (drug-resistant human multiple myeloma); compound treatment 1uM; 5 days. As for the experimental part: as §1, §2
The subject of the next series is MM.1S. Put plainly: Tumor cell viability, CCK-8 assay, MM.1S. Format: cell-based. The settings on record: MM.1S (human multiple myeloma); compound treatment 1uM; 5 days. The method, then: as §1, §2

For `CCCCCCc1ccc(C(=O)Nc2cccc(S(=O)(=O)Nc3cccc(C4CCC(=O)NC4=O)c3)c2)cc1` (stereo not shown) [AEV41083, N-(3-(N-(3-(2,6-dioxopiperidin-3-yl)phenyl)sulfamoyl)phenyl)-4-hexylbenzamide], the “Cell viability (% of control)” value with MDA-MB-231 is 35.5 % of control; in the series on RD, 31.4 % of control; in the series on A549 it was 29.5 % of control; in the series with Jeko-1, 9.7 % of control; with MM.1R-LR, 54.7 % of control; with MM.1S, 17.8 % of control. Further, the half-inhibitory concentration (IC50) at cereblon (CRBN) worked out at 910 nM.
